For 100 compounds, IC90 results are on record in PubChem BioAssay AID2842 (Southern Research Institute, 2010).

≈ marks a conversion by molar mass, not a printed value. Bounds are passed on as bounds.

The experiment relates to M. tuberculosis H37Rv growth inhibition. The experiment is described as follows: Mycobacterium tuberculosis H37Rv growth inhibition, putative kinase inhibitor library, confirmatory dose response (AID 2842).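 Further: bacteria incubated one week before Alamar blue readout.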

With `O=C(Nc1nnc(-c2ccc(Cl)cc2)o1)c1ccccc1Br`, the IC90 is 2.46 µg/mL (≈ 6.5 µM).
Then `CCOC(=O)N1CCc2c(sc(NC(=O)c3ccccc3)c2C(N)=O)C1`, with 1.84 µg/mL (≈ 4.93 µM).
In the case of `O=C(Nc1nnc(-c2ccc(Br)cc2)o1)c1ccc([N+](=O)[O-])cc1`, the IC90 is 50.9 µg/mL (≈ 131 µM).
Then `COc1ccc2sc(Nc3nc(-c4ccccn4)cs3)nc2c1`, with 1.59 µg/mL (≈ 4.67 µM); and `O=C(Nc1nnc(-c2ccc3c(c2)CCCC3)o1)c1ccc(Cl)s1`, with 3.63 µg/mL (≈ 10.1 µM); and `O=C(Nc1nc2c(s1)CCc1ccccc1-2)c1cccc(Br)c1`, with 16.8 µg/mL (≈ 43.6 µM).
As to `COc1cccc(C(=O)N(CCCn2ccnc2)c2nc3ccc(F)cc3s2)c1OC`, the concentration for an effect of 90% (IC90) was 6.75 µg/mL (≈ 15.3 µM).
Then `N=C1SC(c2ccccc2)C(=O)N1c1nccs1` (stereo not given), with 30.1 µg/mL (≈ 109 µM).
With `CC(C)(C)c1ccc(-n2c(=O)[nH]c3c(C(N)=O)nc(CCc4ccccc4)nc32)cc1`, the 90% effect concentration (IC90) is 2.36 µg/mL (≈ 5.68 µM).
The result for `COc1cc(-c2nnc(NC(=O)C3CCCCC3)o2)cc(OC)c1OC` reads 18.4 µg/mL (≈ 50.8 µM); that for `COc1ccc2c(c1)c1nnc(-c3ccc(C)cc3)c-1cn2Cc1ccccc1OC`, 4.23 µg/mL (≈ 10.3 µM).
Then `O=C(c1cccs1)N(CCCn1ccnc1)c1nc2c(F)cc(F)cc2s1`, with 2.38 µg/mL (≈ 5.88 µM).
Then `COc1cc2c3nnc(-c4ccc(C)cc4)c-3cn(Cc3ccc(Cl)cc3)c2cc1OC`, with 4.8 µg/mL (≈ 10.8 µM).
Take `COc1ccc(C)c2sc(NNC(=O)c3nc4ccccc4s3)nc12`: the IC90 is 38 µg/mL (≈ 103 µM).
The result for `COc1ccccc1-c1cnn2c(NC3CCCCC3)cc(C)nc12` reads 13.5 µg/mL (≈ 40.2 µM); that for `CCc1ccc(OCC(=O)Nc2ccc(OC)cc2)cc1`, 12.7 µg/mL (≈ 44.3 µM).
Regarding `O=C(Nc1cccc(Cl)c1)Nc1c2c(nn1-c1ccccc1)CSC2`, the concentration for an effect of 90% (IC90) is 19.7 µg/mL (≈ 53.2 µM).
Then `CCOC(=O)c1csc(Nc2nc3c(SC)cccc3s2)n1`, with 3.13 µg/mL (≈ 8.91 µM).
For `COc1cccc(-c2csc(NC(=O)c3ccc4c(c3)OCCO4)n2)c1`, the IC90 is 14.3 µg/mL (≈ 39 µM).
The result for `Cc1c(Cl)ccc2sc(N(CCCn3ccnc3)C(=O)/C=C/c3cccs3)nc12` reads 0.24 µg/mL (≈ 0.542 µM); that for `O=C(Nc1ccc(S(=O)(=O)N2CCC(c3nc4ccccc4[nH]3)CC2)cc1)c1cccc(Cl)c1`, 0.86 µg/mL (≈ 1.74 µM).
The result for `O=C(Nc1nnc(-c2ccc(Cl)s2)o1)c1ccc(Br)s1` reads 11.6 µg/mL (≈ 29.8 µM); that for `OCc1cn(-c2ccccc2)nc1-c1ccc(F)cc1`, 6.38 µg/mL (≈ 23.8 µM).
On to `Cc1ccc(-c2nnc(NC(=O)CCSc3ccccc3)o2)c(C)c1`, for which the concentration for an effect of 90% (IC90) is 15.1 µg/mL (≈ 42.7 µM).
Take `Clc1cc(Cl)c2nc(N3CCCC3)sc2c1`: the 90% effect concentration (IC90) was 19 µg/mL (≈ 69.5 µM).
Then `O=C(Nc1nnc(-c2cc(Cl)ccc2Cl)o1)c1ccc(Br)s1`, with 2.65 µg/mL (≈ 6.32 µM); and `Cc1ccccc1C(=O)N=Nc1c(O)[nH]c2ccc(Br)cc12`, with 30.8 µg/mL (≈ 85.9 µM).
The result for `COc1ccc(-c2nnc3c4cc(OC)c(OC)cc4n(Cc4ccccc4OC)cc2-3)cc1` reads 5.67 µg/mL (≈ 12.4 µM); that for `O=C(Cc1ccc(F)cc1)N(CCCn1ccnc1)c1nc2ccc(F)cc2s1`, 3.39 µg/mL (≈ 8.22 µM).
Then `COc1ccc(C(=O)Nc2nnc(-c3cc(C)ccc3C)o2)c(OC)c1`, with 13.4 µg/mL (≈ 38 µM); and `COc1cc(OC)cc(C(=O)N(CCCn2ccnc2)c2nc3c(F)cccc3s2)c1`, with 20.6 µg/mL (≈ 46.8 µM); and `Nc1c(C(=O)Nc2ccc(Br)cc2)sc2nc3c(c(-c4cccs4)c12)CCCC3`, with 5.12 µg/mL (≈ 10.6 µM).
Consider `O=C(Cc1ccc(-c2ccccc2)cc1)Nc1nnc2n1CCS2`, for which the IC90 is 13.5 µg/mL (≈ 40.2 µM).
The result for `Cc1ccccc1C(=O)Nc1nnc(-c2cc(Cl)ccc2Cl)o1` reads 1.27 µg/mL (≈ 3.65 µM); that for `CCCCOc1ccc(C(=O)Nc2nnc(-c3ccco3)o2)cc1`, 0.8 µg/mL (≈ 2.44 µM).
Then `CC1=NC2C=CC(Cl)=CC2C(c2ccccc2)=C1C(=O)/C=C/c1nc2ccccc2[nH]1` (stereo not given), with 0.73 µg/mL (≈ 1.71 µM); and `CCOc1cc(-c2nnc(NC(=O)c3cc4ccccc4cc3OC)o2)cc(OCC)c1OCC`, with 2.68 µg/mL (≈ 5.61 µM).
For `NC(=O)c1c(NC(=O)c2ccc([N+](=O)[O-])o2)sc2c1CCCCC2`, the concentration for an effect of 90% (IC90) was 0.52 µg/mL (≈ 1.49 µM).
For the compound `Cc1ccc(Nc2nc(N3CCN(c4ccc(F)cc4)CC3)nc3nccnc23)cc1C`, the IC90 is 22.8 µg/mL (≈ 53 µM).
Then `O=C(c1ccco1)N(CCCn1ccnc1)c1nc2c(F)cccc2s1`, with 3.11 µg/mL (≈ 8.4 µM).
The result for `O=C(NCCSc1c(-c2ccccc2)[nH]c2ccccc12)c1cc2ccccc2oc1=O` reads 2.71 µg/mL (≈ 6.15 µM); that for `COc1cccc(C(=O)N(CCCn2ccnc2)c2nc3ccc(C)cc3s2)c1OC`, 2.63 µg/mL (≈ 6.02 µM).
Turning to `CSc1cccc2sc(Nc3cccc(Cl)c3)nc12`, the IC90 was 5.38 µg/mL (≈ 17.5 µM).
Then `Cc1cc(C)c2sc(NNC(=O)c3cc(-c4cccs4)nc4ccccc34)nc2c1`, with 25.6 µg/mL (≈ 59.5 µM); and `Cc1ccc(C(=O)Nc2cccc(-c3ccc4nnc(C)n4n3)c2)cc1C`, with 12.9 µg/mL (≈ 36 µM); and `COc1cccc(-c2nnc(NC(=O)c3ccccc3Cl)o2)c1`, with 2.69 µg/mL (≈ 8.16 µM).
Then `COc1ccc(Cn2cc(C(=O)c3ccc(C)cc3)c(=O)c3cc(OC)c(OC)cc32)cc1`, with 7.05 µg/mL (≈ 15.9 µM); and `CCSc1ccc(CC(=O)Nc2nnc(-c3ccc4c(c3)OCCO4)o2)cc1`, with 3.57 µg/mL (≈ 8.98 µM); and `Cc1ccc(C)c(-c2nnc(NC(=O)c3ccc4ccccc4c3)o2)c1`, with 18.8 µg/mL (≈ 54.7 µM).
The result for `CSc1cccc2sc(Nc3cccc(C)c3)nc12` reads 12.2 µg/mL (≈ 42.7 µM); that for `O=C(Nc1nnc(-c2ccc(F)cc2)o1)c1ccc(Cl)cc1`, 18.3 µg/mL (≈ 57.5 µM).
As to `CC(C)(C)C1CCc2c(sc3nnn(CC(=O)NCc4ccco4)c(=O)c23)C1` (stereo not given), the IC90 is 22.3 µg/mL (≈ 55.7 µM).
Then `Cc1cccc(C(=O)Nc2nnc(C3=COCCO3)o2)c1`, with 3.36 µg/mL (≈ 11.7 µM); and `O=C(Cc1cccc2ccccc12)Nc1nnc(-c2ccco2)o1`, with 6.89 µg/mL (≈ 21.6 µM); and `O=C(CCOc1ccccc1)Nc1nnc(-c2ccc(Cl)s2)o1`, with 13.9 µg/mL (≈ 39.7 µM).
Then `CC(=O)Oc1cc(C)cc2oc(=O)c3c(c12)CCCC3`, with 6.79 µg/mL (≈ 24.9 µM).
Then `Cc1cc2cc(CNC(=O)C(=O)c3c[nH]c4ccccc34)ccc2[nH]1`, with 8.44 µg/mL (≈ 25.5 µM).
Take `O=C(OC1CCCCC1)c1cc2ccccc2oc1=O`: the IC90 was 49 µg/mL (≈ 180 µM).
The result for `Cc1ccc(-c2nnc(NC(=O)COc3ccccc3)o2)c(C)c1` reads 5.5 µg/mL (≈ 17 µM); that for `CC(=O)CSc1nc2c([nH]c3ccccc32)c(=O)n1-c1cc(C)ccc1C`, 22 µg/mL (≈ 58.2 µM).
The result for `COc1cccc(Nc2nc3ccc(OC)cc3s2)c1` reads 23.3 µg/mL (≈ 81.2 µM); that for `COc1ccc2nc(Nc3nc4c(s3)C(=O)CC(C)(C)C4)sc2c1`, 15.7 µg/mL (≈ 43.7 µM); that for `O=C(Nc1nc2c(s1)CCc1ccccc1-2)c1cccc(Cl)c1`, 12.4 µg/mL (≈ 36.5 µM).
The result for `Cc1cccc(C(=O)Nc2nnc(-c3ccccn3)o2)c1` reads 19.3 µg/mL (≈ 68.8 µM); that for `CCN(c1ccccc1)S(=O)(=O)c1ccc(C(=O)Nc2ccc3ncsc3c2)cc1`, 14.7 µg/mL (≈ 33.5 µM); that for `COc1ccc(NC(=O)CCCN2C(=O)/C(=C\c3ccco3)SC2=S)cc1`, 3.3 µg/mL (≈ 8.2 µM).
With `O=C(COc1ccc(Cl)cc1)N1CCN(c2ncnc3c2nnn3Cc2ccccc2)CC1`, the IC90 was 6.75 µg/mL (≈ 14.5 µM).
Then `Cc1cc(Cl)cc2sc(N(CCCn3ccnc3)C(=O)c3ccco3)nc12`, with less than 0.2 µg/mL.
On to `COC(=O)CSc1ncnc2c1nnn2Cc1ccc(F)cc1`, for which the concentration for an effect of 90% (IC90) is 1.55 µg/mL (≈ 4.65 µM).
The result for `O=c1c2ccccc2oc2cc(O)ccc12` reads 50 µg/mL (≈ 236 µM); that for `Cc1cn2c3c(=O)[nH]c(=O)n(C)c3nc2n1CCCNc1ccccc1`, 3.69 µg/mL (≈ 10.5 µM); that for `C(=N\n1cnnc1)/c1ccc(-n2nc(-c3ccccc3)cc2-c2ccccc2)cc1`, 15.1 µg/mL (≈ 38.7 µM).
In the case of `Cc1cc(C)c2sc(NNC(=O)c3nc4ccccc4s3)nc2c1`, the IC90 is 15.5 µg/mL (≈ 43.7 µM).
`Cc1ccc(-c2nnc(NC(=O)c3ccc(Br)cc3)o2)c(C)c1`: the 90% effect concentration (IC90) is 52.2 µg/mL (≈ 140 µM).
`O=C(Nc1cccc(Cl)c1)c1cccc2nc3ccccc3nc12`: the IC90 is 4.6 µg/mL (≈ 13.8 µM).
As to `Cc1ccc(-c2nnc(NC(=O)c3ccccc3Br)o2)c(C)c1`, the IC90 is 0.27 µg/mL (≈ 0.725 µM).
Then `CC1CN(c2ncnc3c2c(-c2ccccc2)cn3-c2ccc(F)cc2)CC(C)O1` (stereo not given), with 42.4 µg/mL (≈ 105 µM); and `Cc1nc2cc(NC(=O)Nc3ccc(Cl)cc3)ccc2n1-c1ccccc1`, with 6.97 µg/mL (≈ 18.5 µM).
Then `Cc1ccccc1C(=O)Nc1nnc(-c2ccncc2)o1`, with 13.5 µg/mL (≈ 48.2 µM).
The result for `C=CCOC(=O)COc1ccc2cc(-c3ccc(OC)cc3)c(=O)oc2c1` reads 3.58 µg/mL (≈ 9.77 µM).
With `Cc1ccc(C)c(-c2nnc(NC(=O)c3ccc([N+](=O)[O-])cc3)o2)c1`, the IC90 is 78.5 µg/mL (≈ 232 µM).
Take `O=C(COc1ccccc1)Nc1nnc(-c2ccc3c(c2)CCCC3)o1`: the IC90 was 6.48 µg/mL (≈ 18.5 µM).
Take `Cc1cccc(Cn2c(N3CCN(Cc4ccc(Cl)cc4)CC3)nc3c2c(=O)[nH]c(=O)n3C)c1`: the 90% effect concentration (IC90) was 3.15 µg/mL (≈ 6.58 µM).
For the compound `COc1ccc(C(=O)N(CCCn2ccnc2)c2nc3c(C)c(C)ccc3s2)cc1OC`, the IC90 was 14.2 µg/mL (≈ 31.5 µM).
As to `CCN1CCc2c(sc(NC(=O)c3sc4ccccc4c3Cl)c2C(N)=O)C1`, the IC90 is 10.6 µg/mL (≈ 25.2 µM).
For the compound `O=C(Cc1ccccc1)Nc1nnc(-c2ccc(Cl)cc2)o1`, the IC90 was 14.1 µg/mL (≈ 44.9 µM).
`Cc1cccc2sc(NNC(=O)c3cc(-c4cccs4)nc4ccccc34)nc12`: the 90% effect concentration (IC90) was 22.8 µg/mL (≈ 54.8 µM).
The result for `CN1C(=O)c2cccc(NC(=O)c3ccc([N+](=O)[O-])s3)c2C1=O` reads 25.1 µg/mL (≈ 75.7 µM); that for `COc1ccc(-c2nnc(NC(=O)C3CC3)o2)cc1`, 1.06 µg/mL (≈ 4.09 µM); that for `COc1cc(/C=C(\C#N)c2nc(-c3ccccc3)cs2)cc([N+](=O)[O-])c1O`, 54.6 µg/mL (≈ 144 µM).
As for `CC(C)COc1ccc(S(=O)(=O)Nc2ccc3c(c2)C(=O)Nc2ccccc2O3)cc1`, the IC90 is 6.99 µg/mL (≈ 15.9 µM).
Take `O=C(NNc1nc2c(Cl)cccc2s1)c1coc2ccccc2c1=O`: the IC90 is 11.1 µg/mL (≈ 29.9 µM).
The result for `N#CC1=C(N)OC2=C(C(=O)CC(c3ccccc3)C2)C1C1CCCCC1` (stereo not given) reads 7.8 µg/mL (≈ 22.4 µM); that for `CC1(C)Cc2c(sc(NC(=O)c3ccc(Oc4ccccc4)cc3)c2C(N)=O)C(C)(C)N1`, 6.22 µg/mL (≈ 13.8 µM).
Then `CCN(CC)S(=O)(=O)c1ccc(C(=O)Nc2sccc2C(=O)NC(=O)OC)cc1`, with less than 0.2 µg/mL; and `CCCCC(=O)Nc1nnc(-c2ccc3c(c2)CCCC3)o1`, with 3.04 µg/mL (≈ 10.2 µM); and `Fc1cccc2sc(Nc3nnc(-c4ccccc4)o3)nc12`, with 9.14 µg/mL (≈ 29.3 µM).
The result for `CC1CCc2c(sc(Nc3nc4c(F)cccc4s3)c2C(N)=O)C1` (stereo not given) reads 8.58 µg/mL (≈ 23.7 µM); that for `CC(C)Oc1ccc(C(=O)Nc2nnc(-c3cc(Cl)ccc3Cl)o2)cc1`, 13.8 µg/mL (≈ 35.3 µM).
In the case of `O=C(O)c1ccccc1NC1=C(Cl)C(=O)N(c2cccc(Cl)c2)C1=O`, the IC90 is 21.3 µg/mL (≈ 56.5 µM).

As usually defined, the IC90 is the concentration at which the effect reaches the 90% level.
